Assay: Percent of drug absorbed by human intestine after oral administration
Format: ADME, organism-based
Conditions: in vivo

Row | Structure (SMILES) | Fa [%]
1 | OC[C@H]1O[C@@H](O[C@@H]2[C@@H](CO)O[C@](O)(CO)[C@H]2O)[C@H](O)[C@@H](O)[C@H]1O [LACTULOSE] | 0.6
2 | Cc1ccccc1N1C(=O)c2cc(S(N)(=O)=O)c(Cl)cc2NC1C (centres undefined) [METOLAZONE] | 64
3 | O=C(O)P(=O)(O)O [FOSCARNET] | 17
4 | OC[C@H]1O[C@H](OC[C@H]2O[C@H](O[C@]3(CO)O[C@H](CO)[C@@H](O)[C@@H]3O)[C@H](O)[C@@H](O)[C@@H]2O)[C@H](O)[C@@H](O)[C@H]1O [RAFFINOSE] | 0.3
5 | OC[C@@H](O)[C@@H](O)[C@H](O)[C@H](O)CO [MANNITOL] | 26
6 | CCN1CCCC1CNC(=O)c1cc(S(N)(=O)=O)ccc1OC (centres undefined) [SULPIRIDE] | 36
7 | CC(C)NCC(O)COc1cccc2[nH]ccc12 (centres undefined) [PINDOLOL] | 92
8 | O=C(O)c1cc(/N=N/c2ccc(O)c(C(=O)O)c2)ccc1O [OLSALAZINE] | 2.3
9 | NC[C@H]1CC[C@H](C(=O)O)CC1 [TRANEXAMIC ACID] | 55
10 | CC(=O)Nc1ccc(OCC(O)CNC(C)C)cc1 (centres undefined) [PRACTOLOL] | 95
11 | Cc1cc(=O)n(-c2ccccc2)n1C [ANTIPYRINE] | 97
12 | C=CCc1ccccc1OCC(O)CNC(C)C (centres undefined) [ALPRENOLOL] | 96
13 | O=C(O)c1cc(/N=N/c2ccc(S(=O)(=O)Nc3ccccn3)cc2)ccc1O [SULFASALAZINE] | 12
14 | C=CCOc1ccccc1OCC(O)CNC(C)C (centres undefined) [OXPRENOLOL] | 97

— ChEMBL document CHEMBL1133113, “Fast calculation of molecular polar surface area as a sum of fragment-based contributions and its application to the prediction of drug transport properties” (J Med Chem, 2000)
